Results taken from PubChem BioAssay (NCI).
Where “and” joins values, the source holds several entries; their conditions need not be identical. Equal entries are not always repeated.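 Compound exposure: 48 hours, 5 concentrations, 96-well plates. GI50 = concentration required for 50% inhibition of growth. TGI is the concentration that stops growth completely.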

Assays:
Test in all cases: NCI tumour cell line growth inhibition, 48 h
KM20L2 colon = test system: KM20L2 colon
SN12C renal = test system: SN12C renal
MALME-3M melanoma = test system: MALME-3M melanoma
HCC-2998 colon = test system: HCC-2998 colon
SF-268 CNS = test system: SF-268 CNS
NCI-H23 lung = test system: NCI-H23 lung
M19-MEL melanoma = test system: M19-MEL melanoma
CCRF-CEM leukemia = test system: CCRF-CEM leukemia
NCI-H460 lung = test system: NCI-H460 lung
RPMI-8226 leukemia = test system: RPMI-8226 leukemia
SF-539 CNS = test system: SF-539 CNS
A498 renal = test system: A498 renal
DMS 273 small cell lung = test system: DMS 273 small cell lung
SF-295 CNS = test system: SF-295 CNS
UO-31 renal = test system: UO-31 renal
NCI-H522 lung = test system: NCI-H522 lung
NCI-H226 lung = test system: NCI-H226 lung
HOP-62 NSCLC = test system: HOP-62 NSCLC
DMS 114 small cell lung = test system: DMS 114 small cell lung
OVCAR-3 ovarian = test system: OVCAR-3 ovarian
HT29 colon = test system: HT29 colon
XF 498 CNS = test system: XF 498 CNS
SNB-19 CNS = test system: SNB-19 CNS
U251 CNS = test system: U251 CNS
LOX IMVI melanoma = test system: LOX IMVI melanoma
HL-60(TB) leukemia = test system: HL-60(TB) leukemia
OVCAR-8 ovarian = test system: OVCAR-8 ovarian
OVCAR-4 ovarian = test system: OVCAR-4 ovarian
OVCAR-5 ovarian = test system: OVCAR-5 ovarian
HCT-116 colon = test system: HCT-116 colon
SK-MEL-5 melanoma = test system: SK-MEL-5 melanoma
KM12 colon = test system: KM12 colon
UACC-257 melanoma = test system: UACC-257 melanoma
A549 NSCLC = test system: A549 NSCLC
IGROV1 ovarian = test system: IGROV1 ovarian
P388/ADR leukemia = test system: P388/ADR leukemia
NCI/ADR-RES ovarian = test system: NCI/ADR-RES ovarian
HOP-92 NSCLC = test system: HOP-92 NSCLC
CAKI-1 renal = test system: CAKI-1 renal
HOP-18 NSCLC = test system: HOP-18 NSCLC
EKVX NSCLC = test system: EKVX NSCLC
SK-OV-3 ovarian = test system: SK-OV-3 ovarian
SNB-78 CNS = test system: SNB-78 CNS
UACC-62 melanoma = test system: UACC-62 melanoma
MOLT-4 leukemia = test system: MOLT-4 leukemia
DLD-1 colon = test system: DLD-1 colon
MCF7 breast = test system: MCF7 breast
SK-MEL-28 melanoma = test system: SK-MEL-28 melanoma
COLO 205 colon = test system: COLO 205 colon
K-562 leukemia = test system: K-562 leukemia
SNB-75 CNS = test system: SNB-75 CNS
HCT-15 colon = test system: HCT-15 colon
SW-620 colon = test system: SW-620 colon
SN12K1 renal = test system: SN12K1 renal
SK-MEL-2 melanoma = test system: SK-MEL-2 melanoma
P388 leukemia = test system: P388 leukemia
RXF 393 renal = test system: RXF 393 renal

CC/C=C\C/C=C\C/C=C\CCCCCCCC(=O)OC
GI50 (KM20L2 colon): > 100 µM | TGI (KM20L2 colon): > 100 µM | TGI (SN12C renal): > 100 µM | TGI (MALME-3M melanoma): > 100 µM | TGI (HCC-2998 colon): > 100 µM | TGI (SF-268 CNS): > 100 µM | TGI (NCI-H23 lung): > 100 µM | GI50 (M19-MEL melanoma): 45.1 µM | TGI (M19-MEL melanoma): > 100 µM | GI50 (CCRF-CEM leukemia): 3.72 µM | TGI (CCRF-CEM leukemia): > 100 µM | TGI (NCI-H460 lung): > 100 µM | GI50 (RPMI-8226 leukemia): 19.8 µM | TGI (RPMI-8226 leukemia): 69.9 µM and > 100 µM | TGI (SF-539 CNS): > 100 µM | TGI (A498 renal): > 100 µM | TGI (DMS 273 small cell lung): > 100 µM | TGI (SF-295 CNS): > 100 µM | TGI (UO-31 renal): > 100 µM | TGI (NCI-H522 lung): > 100 µM | TGI (NCI-H226 lung): > 100 µM | TGI (HOP-62 NSCLC): > 100 µM | GI50 (DMS 114 small cell lung): 83.3 µM | TGI (DMS 114 small cell lung): > 100 µM | TGI (OVCAR-3 ovarian): > 100 µM | TGI (HT29 colon): > 100 µM | TGI (XF 498 CNS): > 100 µM | TGI (SNB-19 CNS): > 100 µM | TGI (U251 CNS): > 100 µM | GI50 (LOX IMVI melanoma): 25 µM | TGI (LOX IMVI melanoma): 68.4 µM and 38.3 µM | TGI (HL-60(TB) leukemia): 49.9 µM | GI50 (OVCAR-8 ovarian): 0.0205 µM | TGI (OVCAR-8 ovarian): 11.8 µM and > 100 µM | TGI (OVCAR-4 ovarian): > 100 µM | TGI (OVCAR-5 ovarian): > 100 µM | GI50 (HCT-116 colon): 70.6 µM | TGI (HCT-116 colon): > 100 µM | TGI (SK-MEL-5 melanoma): > 100 µM | TGI (KM12 colon): > 100 µM | TGI (UACC-257 melanoma): > 100 µM | TGI (A549 NSCLC): > 100 µM | TGI (IGROV1 ovarian): > 100 µM | TGI (P388/ADR leukemia): 66.3 µM | TGI (NCI/ADR-RES ovarian): > 100 µM | TGI (HOP-92 NSCLC): > 100 µM | TGI (CAKI-1 renal): > 100 µM | TGI (HOP-18 NSCLC): > 100 µM | TGI (EKVX NSCLC): > 100 µM | TGI (SK-OV-3 ovarian): > 100 µM | GI50 (SNB-78 CNS): > 100 µM | TGI (SNB-78 CNS): > 100 µM | TGI (UACC-62 melanoma): > 100 µM | TGI (MOLT-4 leukemia): > 100 µM | TGI (DLD-1 colon): > 100 µM | GI50 (MCF7 breast): 37.8 µM | TGI (MCF7 breast): > 100 µM | TGI (SK-MEL-28 melanoma): > 100 µM | GI50 (COLO 205 colon): > 100 µM | TGI (COLO 205 colon): > 100 µM | GI50 (K-562 leukemia): 39.4 µM | TGI (K-562 leukemia): > 100 µM | GI50 (SNB-75 CNS): > 100 µM | TGI (SNB-75 CNS): > 100 µM | TGI (HCT-15 colon): > 100 µM | TGI (SW-620 colon): > 100 µM | TGI (SN12K1 renal): > 100 µM | TGI (SK-MEL-2 melanoma): > 100 µM

O=C1C(=O)c2cc([N+](=O)[O-])ccc2-c2ccc([N+](=O)[O-])cc21
TGI (KM20L2 colon): 21.7 µM | TGI (SN12C renal): 2.29 µM | TGI (MALME-3M melanoma): 3.84 µM | TGI (HCC-2998 colon): 5.41 µM | TGI (SF-268 CNS): 1.93 µM | TGI (NCI-H23 lung): 2.77 µM | TGI (M19-MEL melanoma): 0.789 µM | TGI (CCRF-CEM leukemia): 1.67 µM | TGI (NCI-H460 lung): 2.65 µM | TGI (RPMI-8226 leukemia): 1.35 µM | TGI (SF-539 CNS): 1.83 µM | TGI (A498 renal): 3.79 µM | TGI (DMS 273 small cell lung): 1.83 µM | TGI (SF-295 CNS): 3.53 µM | TGI (UO-31 renal): 4.44 µM | TGI (NCI-H522 lung): 3 µM | TGI (NCI-H226 lung): 4.09 µM | TGI (HOP-62 NSCLC): 5.87 µM | TGI (DMS 114 small cell lung): 0.908 µM | TGI (OVCAR-3 ovarian): 0.662 µM | TGI (HT29 colon): 22.7 µM | TGI (XF 498 CNS): 2.64 µM | TGI (SNB-19 CNS): 4.65 µM | TGI (U251 CNS): 2.36 µM | TGI (LOX IMVI melanoma): 3.82 µM | TGI (HL-60(TB) leukemia): 2.06 µM | TGI (OVCAR-8 ovarian): 1.27 µM | TGI (OVCAR-4 ovarian): 0.951 µM | TGI (OVCAR-5 ovarian): 6.4 µM | TGI (HCT-116 colon): 0.885 µM | TGI (SK-MEL-5 melanoma): 3.67 µM | TGI (KM12 colon): 2.66 µM | TGI (UACC-257 melanoma): 3.19 µM | TGI (A549 NSCLC): 5.97 µM | TGI (IGROV1 ovarian): 2.29 µM | TGI (P388/ADR leukemia): 2.54 µM | TGI (NCI/ADR-RES ovarian): 1.03 µM | TGI (HOP-92 NSCLC): 1.64 µM | TGI (CAKI-1 renal): 2.14 µM | TGI (HOP-18 NSCLC): 8.89 µM | TGI (EKVX NSCLC): 3.94 µM | TGI (SK-OV-3 ovarian): 5.31 µM | TGI (SNB-78 CNS): 2.66 µM | TGI (UACC-62 melanoma): 1.54 µM | TGI (MOLT-4 leukemia): 1.15 µM | TGI (DLD-1 colon): 3.95 µM | TGI (MCF7 breast): 2.61 µM | TGI (SK-MEL-28 melanoma): 4.21 µM | TGI (COLO 205 colon): 7.75 µM | TGI (P388 leukemia): 0.52 µM | TGI (RXF 393 renal): 0.892 µM | TGI (K-562 leukemia): 2.01 µM | TGI (SNB-75 CNS): 5.2 µM | TGI (HCT-15 colon): 3.02 µM | TGI (SW-620 colon): 1.56 µM | TGI (SN12K1 renal): 0.964 µM | TGI (SK-MEL-2 melanoma): 4.16 µM
